This experiment deals with human mGlu5a receptor (Homo sapiens (Human), UniProt P41594). As to the kind of experiment: Intracellular Ca2+ mobilization assay (mGlu5 PAM). The format is cell-based. The conditions noted are these: for EC50: HEK-293 cells stably transfected with human mGlu5a, L-glutamate added at EC20 after pre-incubation with test compound, read-out: EC50 (nM) mGlu5PAM; for Emax: maximal response in % of the maximal stimulatory effect obtained with saturating concentrations of L-glutamate, read-out: Eff. (%). In a few lines: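 HEK-293 cells stably expressing human mGlu5a at low level were loaded with Fluo-4AM and preincubated 10–30 min at 37 °C with 11-point half-log compound dilutions. L-glutamate was then added at its daily-determined EC20 (typically around 80 μM). Peak fluorescence minus basal, normalized to maximal glutamate effect, was fitted to give EC50, Hill slope and maximal response.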
Chain of human mGlu5a receptor (P41594 other isoform, or with tags, fused parts or gaps): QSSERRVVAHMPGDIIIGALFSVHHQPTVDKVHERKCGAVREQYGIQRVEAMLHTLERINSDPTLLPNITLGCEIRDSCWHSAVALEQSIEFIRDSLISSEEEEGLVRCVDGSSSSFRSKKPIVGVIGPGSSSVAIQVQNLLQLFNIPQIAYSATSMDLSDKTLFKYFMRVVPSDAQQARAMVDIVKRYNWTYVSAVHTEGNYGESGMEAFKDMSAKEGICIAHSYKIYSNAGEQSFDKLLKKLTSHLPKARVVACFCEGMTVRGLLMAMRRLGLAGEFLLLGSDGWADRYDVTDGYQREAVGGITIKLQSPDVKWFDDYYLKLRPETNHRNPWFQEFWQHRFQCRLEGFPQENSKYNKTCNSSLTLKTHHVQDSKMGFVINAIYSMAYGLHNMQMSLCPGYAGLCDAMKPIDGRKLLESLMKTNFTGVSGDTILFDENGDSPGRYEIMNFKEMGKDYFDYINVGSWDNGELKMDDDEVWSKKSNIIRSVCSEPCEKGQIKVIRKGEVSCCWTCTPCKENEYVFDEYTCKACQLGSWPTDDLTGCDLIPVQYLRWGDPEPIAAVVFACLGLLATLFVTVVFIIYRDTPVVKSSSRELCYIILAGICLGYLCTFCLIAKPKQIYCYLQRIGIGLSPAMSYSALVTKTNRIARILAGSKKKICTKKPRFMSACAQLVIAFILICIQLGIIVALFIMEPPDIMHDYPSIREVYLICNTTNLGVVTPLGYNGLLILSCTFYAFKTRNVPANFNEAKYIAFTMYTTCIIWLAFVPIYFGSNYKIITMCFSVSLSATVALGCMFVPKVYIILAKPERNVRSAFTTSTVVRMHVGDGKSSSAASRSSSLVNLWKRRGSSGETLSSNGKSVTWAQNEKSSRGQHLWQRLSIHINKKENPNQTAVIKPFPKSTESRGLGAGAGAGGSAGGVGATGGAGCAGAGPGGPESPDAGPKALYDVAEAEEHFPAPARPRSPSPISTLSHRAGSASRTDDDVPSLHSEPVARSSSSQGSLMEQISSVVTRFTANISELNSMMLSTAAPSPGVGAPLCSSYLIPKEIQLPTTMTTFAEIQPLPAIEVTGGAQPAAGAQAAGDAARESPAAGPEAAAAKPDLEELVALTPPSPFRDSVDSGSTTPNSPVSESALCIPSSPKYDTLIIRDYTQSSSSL
A general note: Calcium flux is commonly read through the fluorescence of an indicator in the cells.

As a reminder, the EC50 is the concentration needed to bring the measured effect to its halfway point. Consider `Cc1cccc(C#Cc2ccc(N3CC(C)(C)N(C)C3=O)nc2)c1` [Example 56, 3,4,4-Trimethyl-1-(5-m-tolylethynyl-pyridin-2-yl)-imidazolidin-2-one], for which the EC50 was determined as 87 nM and the Emax is 56%.
In the case of `CN1C(=O)N(c2ccc(C#Cc3ccc(F)cc3)cn2)CC1(C)C` [Example 57, 1-[5-(4-Fluoro-phenylethynyl)-pyridin-2-yl]-3,4,4-trimethyl-imidazolidin-2-one], the EC50 was 35 nM and the Emax is 78%.
Taken in the same sequence, the figures for `O=C1CC2(CCCC2)CN1c1ccc(C#Cc2ccccc2)cn1` [Example 59, 2-(5-Phenylethynyl-pyridin-2-yl)-2-aza-spiro[4.4]nonan-3-one] were 16 nM and 81%.
Taken in the same sequence, the figures for `CN1C(=O)N(c2ccc(C#Cc3ccccc3)cn2)CCC1(C)C` [Example 67, 3,4,4-Trimethyl-1-(5-phenylethynyl-pyridin-2-yl)-tetrahydro-pyrimidin-2-one] were 15 nM and 81%.
Taken in the same sequence, the figures for `CN1C(=O)N(c2ccc(C#Cc3cc(F)ccc3F)cn2)CCC1(C)C` [Example 68, 1-[5-(2,5-Difluoro-phenylethynyl)-pyridin-2-yl]-3,4,4-trimethyl-tetrahydro-pyrimidin-2-one] were 41 nM and 79%.
As to `CN1C(=O)N(c2ccc(C#Cc3ccc(F)cc3)cn2)CCC1(C)C` [Example 69, 1-[5-(4-Fluoro-phenylethynyl)-pyridin-2-yl]-3,4,4-trimethyl-tetrahydro-pyrimidin-2-one], the EC50 came to 49 nM and the Emax turned out to be 107%.
In the case of `CC1(C)CCN(c2ccc(C#Cc3cccnc3)cn2)C(=O)O1` [Example 73, 6,6-Dimethyl-3-(5-pyridin-3-ylethynyl-pyridin-2-yl)-[1,3]oxazinan-2-one], the EC50 amounted to 59 nM and the Emax is 98%.
Consider `CC1(C)CCN(c2ccc(C#Cc3cncc(F)c3)cn2)C(=O)O1` [Example 74, 3-[5-(5-Fluoro-pyridin-3-ylethynyl)-pyridin-2-yl]-6,6-dimethyl-[1,3]oxazinan-2-one], for which the EC50 was 59 nM and the Emax was found to be 108%.
With `CC1(C)CCN(c2ccc(C#Cc3cncc(Cl)c3)cn2)C(=O)O1` [Example 75, 3-[5-(5-Chloro-pyridin-3-ylethynyl)-pyridin-2-yl]-6,6-dimethyl-[1,3]oxazinan-2-one], the EC50 was found to be 27 nM and the Emax was determined as 87%.
Take `CC1(C)CCN(c2ccc(C#Cc3cccc(Cl)c3)cn2)C(=O)O1` [Example 77, 3-[5-(3-Chloro-phenylethynyl)-pyridin-2-yl]-6,6-dimethyl-[1,3]oxazinan-2-one]: the EC50 came to 12 nM and the Emax was found to be 72%.
Taken in the same sequence, the figures for `Cc1cccc(C#Cc2ccc(N3CCC(C)(C)OC3=O)nc2)c1` [Example 78, 6,6-Dimethyl-3-(5-m-tolylethynyl-pyridin-2-yl)-[1,3]oxazinan-2-one] were 24 nM and 72%.
With `CC1(C)CCN(c2ccc(C#Cc3ccc(F)c(F)c3)cn2)C(=O)O1` [Example 80, 3-[5-(3,4-Difluoro-phenylethynyl)-pyridin-2-yl]-6,6-dimethyl-[1,3]oxazinan-2-one], the EC50 turned out to be 37 nM and the Emax stood at 69%.
Regarding `O=C1CC2(COC2)CN1c1ccc(C#Cc2ccccc2)cn1` [Example 82, 6-(5-Phenylethynyl-pyridin-2-yl)-2-oxa-6-aza-spiro[3.4]octan-7-one], the EC50 came out at 57 nM and the Emax is 72%.
Turning to `CN1C(=O)N(c2ccc(C#Cc3ccccc3)cn2)C2CCCCC21` (stereo not drawn) [Example 84, (3 aSR,7aRS)-(3aRS,7RS)-1-Methyl-3-(5-phenylethynyl-pyridin-2-yl)-octahydro-benzoimidazol-2-one], the EC50 stood at 11 nM and the Emax turned out to be 64%.
With `CN1C(=O)N(c2ccc(C#Cc3cccnc3)cn2)C2CCCCC21` (stereo not drawn) [Example 85, (3aSR,7aRS)-(3aRS,7RS)-1-Methyl-3-(5-pyridin-3-ylethynyl-pyridin-2-yl)-octahydro-benzoimidazol-2-one], the EC50 was determined as 27 nM and the Emax was 49%.
For the compound `CN1C(=O)N(c2ccc(C#Cc3cncc(F)c3)cn2)C2CCCCC21` (stereo not drawn) [Example 86, (3aSR,7aRS)-(3aRS,7RS)-1-[5-(5-Fluoro-pyridin-3-ylethynyl)-pyridin-2-yl]-3-methyl-octahydro-benzoimidazol-2-one], the EC50 came out at 32 nM and the Emax came to 52%.
In the case of `CC1(C)CCN(c2ccc(C#Cc3ccccc3)cn2)C(=O)C1` [Example 87, 4,4-Dimethyl-5′-phenylethynyl-3,4,5,6-tetrahydro-[1,2′]bipyridinyl-2-one], the EC50 came to 12 nM and the Emax turned out to be 89%.
`CC1(C)CCN(c2ccc(C#Cc3cccc(F)c3)cn2)C(=O)C1` [Example 88, 5′-(3-Fluoro-phenylethynyl)-4,4-dimethyl-3,4,5,6-tetrahydro-[1,2′]bipyridinyl-2-one]: the EC50 was found to be 19 nM and the Emax amounted to 110%.
Turning to `CC1(C)CCN(c2ccc(C#Cc3cccc(Cl)c3)cn2)C(=O)C1` [Example 89, 5′-(3-Chloro-phenylethynyl)-4,4-dimethyl-3,4,5,6-tetrahydro-[1,2′]bipyridinyl-2-one], the EC50 is 25 nM and the Emax was 78%.
Taken in the same sequence, the figures for `CC1(C)CCN(c2ccc(C#Cc3cncc(Cl)c3)cn2)C(=O)C1` [Example 90, 5′-(5-Chloro-pyridin-3-ylethynyl)-4,4-dimethyl-3,4,5,6-tetrahydro-[1,2′]bipyridinyl-2-one] were 66 nM and 90%.
Regarding `CC1(C)CCN(c2ccc(C#Cc3ccc(F)cc3)cn2)C(=O)C1` [Example 91, 5′-(4-Fluoro-phenylethynyl)-4,4-dimethyl-3,4,5,6-tetrahydro-[1,2′]bipyridinyl-2-one], the EC50 amounted to 67 nM and the Emax was determined as 89%.
Regarding `CC1(C)CCN(c2ccc(C#Cc3cc(F)ccc3F)cn2)C(=O)C1` [Example 92, 5′-(2,5-Difluoro-phenylethynyl)-4,4-dimethyl-3,4,5,6-tetrahydro-[1,2′]bipyridinyl-2-one], the EC50 was 32 nM and the Emax was determined as 84%.
Turning to `CC1(C)CCCN(c2ccc(C#Cc3ccccc3)cn2)C(=O)O1` [Example 93, 7,7-Dimethyl-3-(5-phenylethynyl-pyridin-2-yl)-[1,3]oxazepan-2-one], the EC50 came out at 36 nM and the Emax was 104%.
As for `O=C1OC2COCCC2N1c1ccc(C#Cc2ccccc2)cn1` (stereo not drawn) [Example 94, (3aSR,7aRS)-(3aRS,7RS)-1-(5-Phenylethynyl-pyridin-2-yl)-hexahydro-pyrano[4,3-d]oxazol-2-one], the EC50 was 60 nM and the Emax is 84%.
For the compound `CN1C(=O)N(c2ccc(C#Cc3ccccc3)cn2)CC12CC2` [Example 96, 4-Methyl-6-(5-phenylethynyl-pyridin-2-yl)-4,6-diaza-spiro[2.4]heptan-5-one], the EC50 came to 35 nM and the Emax came out at 98%.
With `CC1(C)CN(c2ccc(C#Cc3ccccc3)cn2)C1=O` [Example 97, 3,3-Dimethyl-1-(5-phenylethynyl-pyridin-2-yl)-azetidin-2-one], the EC50 amounted to 36 nM and the Emax was found to be 71%.
Regarding `CCN1C(=O)N(c2ccc(C#Cc3ccccc3)cn2)C2CCCCC21` (stereo not drawn) [Example 99, (3aSR,7aRS)-(3aRS,7RS)-1-Ethyl-3-(5-phenylethynyl-pyridin-2-yl)-octahydro-benzoimidazol-2-one], the EC50 was determined as 18 nM and the Emax came to 90%.
With `CCN1C(=O)N(c2ccc(C#Cc3cccnc3)cn2)C2CCCCC21` (stereo not drawn) [Example 100, (3aSR,7aRS)-(3aRS,7RS)-1-Ethyl-3-(5-pyridin-3-ylethynyl-pyridin-2-yl)-octahydro-benzoimidazol-2-one], the Emax was found to be 64%.
Regarding `CC(C)N1C(=O)N(c2ccc(C#Cc3ccccc3)cn2)C2CCCCC21` (stereo not drawn) [Example 101, (3aSR,7aRS)-(3aRS,7RS)-1-Isopropyl-3-(5-phenylethynyl-pyridin-2-yl)-octahydro-benzoimidazol-2-one], the EC50 stood at 39 nM and the Emax worked out at 77%.
Take `Cc1cc(C#Cc2cccc(F)c2)cnc1N1CC(C)(C)N(C)C1=O` [Example 108, 1-[5-(3-Fluoro-phenylethynyl)-3-methyl-pyridin-2-yl]-3,4,4-trimethyl-imidazolidin-2-one]: the EC50 is 102 nM and the Emax is 115%.
As for `CN1C(=O)N(c2ncc(C#Cc3ccc(F)cc3)cc2F)CC1(C)C` [Example 110], the EC50 was found to be 96 nM and the Emax worked out at 117%.
Regarding `CN1C(=O)N(c2ncc(C#Cc3cccc(F)c3)cc2F)CC1(C)C` [Example 111], the EC50 came out at 32 nM and the Emax is 107%.
Take `CN1C(=O)N(c2ccc(C#Cc3ccc(F)cc3)cn2)CC12CC2` [Example 112, 6-[5-(4-Fluoro-phenylethynyl)-pyridin-2-yl]-4-methyl-4,6-diaza-spiro[2.4]heptan-5-one]: the EC50 stood at 80 nM and the Emax was found to be 89%.
For `CN1C(=O)N(c2ccc(C#Cc3cccc(F)c3)cn2)CC12CC2` [Example 113, 6-[5-(3-Fluoro-phenylethynyl)-pyridin-2-yl]-4-methyl-4,6-diaza-spiro[2.4]heptan-5-one], the EC50 was 51 nM and the Emax came out at 75%.
For `CC1(C)CC(=O)N(c2ncc(C#Cc3ccccc3)cn2)C1` [Example 115, 4,4-Dimethyl-1-(5-phenylethynyl-pyrimidin-2-yl)-pyrrolidin-2-one], the EC50 was 13 nM and the Emax came to 109%.
As to `CC1(C)CCC(=O)N(c2ncc(C#Cc3ccccc3)cn2)C1` [Example 116, 5,5-Dimethyl-1-(5-phenylethynyl-pyrimidin-2-yl)-piperidin-2-one], the EC50 came out at 41 nM and the Emax is 101%.

Values taken from US9315498B2, “Arlethynyl derivatives” (Hoffmann-La Roche Inc., priority 2010, dated 2016).
